The source of these data is patent publication US20070054887A1, “Methods for treating bladder dysfunction” (BioXell S.p.A, priority 2003, published 2007).

Several values for one entry are separate records, joined by “and”; a condition that tells them apart may be missing. Identical values can stand only once.

One data set deals with hBC. Description: androgen-stimulated hBC growth, 48 h incubation. The settings on record: DHT 10 nM, Compound A 1 nM, finasteride 1 nM, FIG. 5. It counts as cell-based, human. The source says: Results are expressed as percentage variation (mean±SEM) over their relative controls and derived from at least three different experiments obtained from three distinct hBC cell preparations. *P<0.05 (vs. control); °P<0.01 (vs. androgen-treated cells).

The next data set relates to BPH cells. The settings on record: previously found, cited from earlier work; for BPH cell proliferation: also counteracted mitogenic activity of KGF and IGFI.
The test system of a further data set is human bladder cells. Description: inhibition of basal human bladder cell growth. It counts as cell-based.
Data set [1] can be described thus: maximum tolerated dose (MTD) in rats. Format: in vivo. The settings on record: rat, in vivo, read-out: MTD. The text has this: The maximum tolerated dose (MTD) in rats is also listed for each compound.
Data set [2] concerns rats with CYP-induced cystitis. Description: cyclophosphamide (CYP) induced chronic cystitis in rats: conscious cystometry. Also on record: amplitude of NVBC (amplitude of non-voiding bladder contraction): unit not given here. Format: in vivo, Wistar rats. The source says: The rat model of chemical cystitis induced by intraperitoneal injection of CYP has been well accepted. CYP is used in clinical practice in the treatment of a number of malignant tumors. One of its metabolites, acrolein, is excreted in urine in large concentrations causing hemorrhagic cystitis associated with symptoms of urinary frequency, urgency and pelvic pain. The inflammatory process is characterized by changes in gross histology of bladder, increase in number and distribution of inflammatory cell infiltrates (mast cells, macrophage, PMNs), cyclo-oxygenase-2 expression and prostaglandin production, growth factor and cytokine production. The rat model of chemical cystitis closely resembles interstitial cystitis, a chronic, painful urinary bladder syndrome and has been used for the testing of therapeutic agents in the past.
This model was used to test the effects of 1,25-dihydroxyvitamin D3 analogue in rats with CYP-induced cystitis. The effects of the treatment on the cystometric parameters in a conscious freely moving rat with CYP-induced cystitis were monitored. The following cystometric parameters were recorded in each animal:
Animals: Wistar rats weighing 125-175 g were used. […] Following recovery all animals received three intraperitoneal injections of CYP and subsequently were divided into the treatment and sham control groups.
Treatment group: Rats treated with oral 1,25-dihydroxyvitamin D3 analogue 1,3-di-O-acetyl-1,25-dihydroxy-16,23Z-diene-26,27-hexafluoro-19-nor-cholecalciferol (“Compound C”) for 14 days (daily dose of 0.1 μg/kg) [drawing 138]
Cystometry was performed 24 hours following the last dose of the drug or vehiculum on awake freely moving animals.
A lower midline abdominal incision was performed under general inhalation anesthesia (isoflurine with O2) and polyethylene tubing (PE-50, Clay Adams, Parsippany, N.J.) with the end flared by heat was inserted into the dome of the bladder and secured in place with a 6-0 prolene purse string suture. The distal end of the tubing was heat-sealed, tunneled subcutaneously and externalized at the back of the neck, out of the animal's reach. Abdominal and neck incisions were closed with 4-0 nylon sutures.
Following recovery (5 days) subject animals underwent three intraperitoneal injections of CYP (Sigma Chemical, St. Louis, Mo.; 75 mg/kg each, intraperitoneal) over the period of nine days. On the tenth day following the first CYP injection the sham control animals received the vehicle only, whereas the experimental group were treated with the 1,25-dihydroxyvitamin D3 analogue 1,3-di-O-acetyl-1,25-dihydroxy-16,23Z-diene-26,27-hexafluoro-19-nor-cholecalciferol “Compound C” (delivered using gavage). Two weeks following the initiation of the treatment animals underwent a conscious cystometrogram to assess the function of the urinary bladder.
An animal was placed unrestrained in a cage and the catheter was connected via a T-tube to a pressure transducer (Grass® Model PT300, West Warwick, R.I.) and microinjection pump (Harvard Apparatus 22, South Natick, Mass.). A 0.9% saline solution was infused at room temperature into the bladder at a rate of 10 ml/h. Intravesical pressure was recorded continuously using a Neurodata Acquisition System (Grass® Model 15, Astro-Med, Inc, West Warwick, R.I.). At least three reproducible micturition cycles were recorded after the initial stabilization period of 25-30 min.

Where [3] appears, read: drug treated animals versus vehicle, 0.1 μg/kg oral 14 days.
[4] abbreviates: oral 0.1 μg/kg daily for 14 days, individual rats, three micturition cycles each.

For the compound `CC(C)(C)NC(=O)[C@H]1CC[C@H]2[C@@H]3CC[C@H]4NC(=O)C=C[C@]4(C)[C@H]3CC[C@]12C` [finasteride, reference compound], the “hBC proliferation stimulated by the androgen DHT” value with hBC is “no significant effect”.
With `C=C1CC[C@H](O)C/C1=C/C=C1\CCC[C@]2(C)[C@@H]([C@H](C)CCCC(C)C)CC[C@@H]12` [vitamin D3, reference compound], the BPH cell proliferation entry with BPH cells is “inhibited”.
What is called IC50 is the concentration needed to halve the response being measured. What is called MTD is the largest dose that counted as tolerated. In turn, `CC(=O)OC1C/C(=C/C=C2\CCC[C@]3(C)C(C(C)C/C=C\C(O)(C(F)(F)F)C(F)(F)F)=CCC23)C[C@@H](OC(C)=O)C1` (stereo partly drawn) [Compound C, 1,3-di-O-acetyl-1,25-dihydroxy-16,23Z-diene-26,27-hexafluoro-19-nor-cholecalciferol] showed an IC50 with human bladder cells (Homo sapiens) of 39.8 nM. Also, in data set [1], the MTD came to 0.1 µg/kg. Further, in data set [2] (setting [3]), the “amplitude of non-voiding bladder contractions, change versus control” value was “Dramatic reductions”; the “bladder capacity, change versus control” value is reported as “did not result in a change”; the “filling pressure, change versus control” value is recorded as “statistically significant reductions”; the “number of non-voiding bladder contractions, change versus control” value is listed as “Dramatic reductions”. The “threshold pressure, change versus control” value in data set [2] (setting [3]) is on record as “statistically significant reductions”. For the same compound, the “Bl. Cap. (bladder capacity)” value in data set [2] (oral 0.1 μg/kg daily for 14 days, individual rats RB7, RB13, RB15, three micturition cycles each) was 1.9 ml and 1.3 ml (2×) and 2.5 ml and 1.5 ml and 0.7 ml (2×) and 0.8 ml and 1.4 ml. In addition, in data set [2] (setting [4]), the “# of NVBC (number of non-voiding bladder contractions)” value was 4 and 8 (2×) and 0 (6×); the “FP (filling pressure)” value is 15 cmH2O and 14 cmH2O (3×) and 12 cmH2O and 11 cmH2O and 10 cmH2O and 13 cmH2O (2×); the “MP (micturition pressure)” value was 105 cmH2O and 97 cmH2O (2×) and 90 cmH2O and 100 cmH2O and 108 cmH2O and 98 cmH2O and 101 cmH2O and 104 cmH2O; the “TP (threshold pressure)” value is 16 cmH2O and 17 cmH2O and 14 cmH2O (4×) and 12 cmH2O and 11 cmH2O and 15 cmH2O. In addition, in data set [2] (setting [4]), the “amplitude of NVBC (amplitude of non-voiding bladder contraction)” value is 10 and 11 (2×) and 0 (6×).
Consider `C=C1/C(=C\C=C2/CCC[C@]3(C)C([C@H](C)CC#CC(C)(C)O)=CC[C@@H]23)C[C@@H](O)C[C@@H]1O` [Compound B, 1,25-dihydroxy-16-ene-23-yne cholecalciferol], for which the “inhibition of bladder cell growth” value with human bladder cells (stimulated and basal bladder cell growth, FIG. 4, in some cases significantly greater than anti-androgens such as finasteride) is recorded as “demonstrated”. Also, the BPH cell proliferation result with BPH cells is listed as “inhibited”. In addition, the “apoptosis in BPH cells” value in the data set on BPH cells (unstimulated and KGF-stimulated BPH cells) is given as “induced”.
